# From US20200316092A1, “METHODS OF DIAGNOSIS AND TREATMENT OF LIVER DISEASES USING OBETICHOLIC ACID” (Intercept Pharmaceuticals, Inc., priority 2019, published 2020)
# Entries after “also recorded” stand apart in the source; their conditions may differ.
# Tests used:
# Assay type in all cases: in vivo, human
# [1] = system: subjects with nonalcoholic steatohepatitis with fibrosis; assay: Phase 1 placebo-controlled study: safety and tolerability (TEAE incidence); settings: for Total Number of TEAEs: 85 days; for Total Number of TEAEs / Any Serious TEAE / Constipation (TEAE incidence) / Diabetes mellitus (TEAE) / Fatigue (TEAE incidence) / Headache (TEAE incidence) / Hepatobiliary disorders (SOC) (TEAE) / Hypercholesterolemia (TEAE) / LDL Increased, Mild (maximum severity) / LDL Increased, Moderate (maximum severity) / LDL Increased, Severe (maximum severity) / Low density lipoprotein increased (TEAE incidence) / Nausea (TEAE incidence) / Pneumonia (TEAE incidence) / Pruritis (TEAE incidence) / Pruritus, Mild (maximum severity) / Pruritus, Moderate (maximum severity) / Pruritus, Severe (maximum severity) / Subjects with at least one TEAE: n = 20
# Description: Example 1: A Phase 1, Double-Blind, Randomized, Placebo-Controlled Study to Evaluate Safety, Pharmacokinetics, and Pharmacodynamics of Obeticholic Acid in Subjects with Nonalcoholic Steatohepatitis with Fibrosis
# (§1) The primary objectives of this study are to evaluate the safety and tolerability of OCA treatment in subjects with NASH with fibrosis and to evaluate single- and multiple-dose pharmacokinetics of OCA, its conjugates, and metabolites in subjects with NASH with fibrosis.
# The study comprised three treatment groups-10 mg QD, 25 mg QD and Placebo QD.
# [2] = Phase 1 study: liver exposure of OCA and its conjugates
# [3] = system: subjects with nonalcoholic steatohepatitis with fibrosis; assay: Phase 1 study: liver chemistries (ALT, AST, GGT, bilirubin, ALP); settings: Day 85 compared to baseline
# Description: (§2) The secondary objectives of this study are to evaluate the pharmacodynamics of OCA on FXR activation and to evaluate liver chemistries and the pharmacodynamics of OCA on biomarkers of NASH, including inflammation, apoptosis, and oxidation stress.
# [4] = system: FXR activation; assay: Phase 1 study: pharmacodynamic markers of FXR activation (C4, bile acids, FGF-19); settings: Day 85 compared to baseline
# Description: as §2
# Furthermore, plasma bile acids were suppressed by administration of OCA, but no dose response was observed.
# [5] = system: liver function of NASH subjects; assay: HepQuant-SHUNT test: disease severity index (DSI) score
# Description: The HepQuant®-SHUNT test uses simultaneous orally administered d4-cholate and intravenously administered 13C-cholate (i.e. intravenous (24-^13C cholate) and oral (2,2,4,4-^2H cholate) together with mass spectrometry analysis of five serum samples from the subject to accurately measure liver function and generate a disease severity index (DSI) score. HepQuant®-STAT is a simpler test that uses only orally administered d4-cholate and a single serum sample from the subject to estimate liver function (STAT).
# Briefly, the HepQuant®-SHUNT test allows for simultaneous measurement of the perfusion/uptake from portal circulation and perfusion/uptake from systemic circulation, as shown in FIGS. 1 and 2. In a HepQuant®-SHUNT test, a subject is orally administered 40 mg of d4-cholate and intravenously administered 20 mg of 13C-cholate. Blood samples are then isolated from the subject at 5, 20, 45, 60 and 90 minutes after cholate administration. For each sample, mass spectrometry is used to determine the Portal Hepatic Filtration Rate (Portal HFR) and Systemic Hepatic Filtration Rate (Systemic HFR). The Portal HFR is defined as the clearance of 4D-cholate (dose AUC^−1 kg body weight^−1, typically mL mini kg^−1) and the Systemic HFR is defined as the clearance of 13C-cholate (dose AUC^−1 kg body weight^−1, typically mL min^−1 kg^−1). The Portal HFR and Systemic HFR can then be used to calculate a Disease Severity Index (DSI) score. The DSI can be used to determine the extent of liver function, and therefore the extent of liver damage/disease in the subject. Thus, the DSI score can be used to diagnose a subject with a disease. For example, a DSI greater than 16.5 can indicate that the subject will likely have biopsy-proven NASH. A DSI score can also be used to determine the percent likelihood of endoscopic finding of varices in subjects with NASH or hepatitis C virus infection, as shown in FIG. 3. DSI scores can also be measured multiple times during a course of treatment described herein (a treatment regimen) to determine the efficacy of the course of treatment. For example, a baseline DSI score can be measured by performing a HepQuant®-SHUNT test prior to the start of the treatment regimen (i.e. prior to the first administration of the treatment regimen) and then a second DSI score can be measured at a time point during the treatment regimen. The first and second DSI scores can compared to determine a DSI difference score. For example, a reduction in DSI score from the baseline measurement can indicate that the course of treatment is beneficial as the subject's liver function is improving. Depending on the DSI difference score, the treatment regimen can be adjusted, continued or discontinued.
# In some aspects, a DSI difference score that is greater than or equal to 2 (i.e. a decrease in the DSI scores of 2 or more over the course of treatment) is considered to be clinically meaningful, based on reducing the probability of any varices from approximately 30% to 20% for subjects with a baseline DSI of 20.
# As part of the HepQuant®-SHUNT test, labeled cholate was administered intravenously and orally. The HepQuant®-SHUNT tests were used to determine disease severity index (DSI) scores.
# [6] = Phase 1 study: plasma pharmacokinetics of total OCA; settings: 10 mg QD or 25 mg QD
# Description: as §1
# Furthermore, although there were a limited number of subjects having a fibrosis score of F4, plasma exposure was lower in these subjects as compared to the subjects with a fibrosis score of F1 or F2/F3.
compound,measurement,setting,value
"CC[C@H]1[C@@H](O)[C@@H]2[C@H](CC[C@]3(C)[C@@H]([C@H](C)CCC(=O)O)CC[C@@H]23)[C@@]2(C)CC[C@@H](O)C[C@@H]12 [OCA, 3α,7α-dihydroxy-6α-ethyl-5β-cholan-24-oic acid]",TEAEs leading to study discontinuation,[1]; 10 mg QD and 25 mg QD for 12 weeks,no TEAEs leading to study discontinuation
same,safety and tolerability,"[1]; 10 mg QD and 25 mg QD for 12 weeks, NASH subjects with fibrosis",generally safe and well tolerated
same,Total Number of TEAEs,[1]; OCA 10 mg QD,29
same,Any Serious TEAE,[1]; OCA 10 mg QD,0 n (%)
same,Constipation (TEAE incidence),[1]; OCA 10 mg QD,2 (10%) n (%)
same,Diabetes mellitus (TEAE),[1]; OCA 10 mg QD,1 (5%) n (%)
same,Fatigue (TEAE incidence),[1]; OCA 10 mg QD,2 (10%) n (%)
same,Headache (TEAE incidence),[1]; OCA 10 mg QD,0 n (%)
same,Hepatobiliary disorders (SOC) (TEAE),[1]; OCA 10 mg QD,0 n (%)
same,Hypercholesterolemia (TEAE),[1]; OCA 10 mg QD,0 n (%)
same,"LDL Increased, Mild (maximum severity)",[1]; OCA 10 mg QD,2 (10%) n (%)
same,"LDL Increased, Moderate (maximum severity)",[1]; OCA 10 mg QD,0 n (%)
same,"LDL Increased, Severe (maximum severity)",[1]; OCA 10 mg QD,0 n (%)
same,Low density lipoprotein increased (TEAE incidence),[1]; OCA 10 mg QD,2 (10%) n (%)
same,Nausea (TEAE incidence),[1]; OCA 10 mg QD,0 n (%)
same,Pneumonia (TEAE incidence),[1]; OCA 10 mg QD,0 n (%)
same,Pruritis (TEAE incidence),[1]; OCA 10 mg QD,3 (15%) n (%)
same,"Pruritus, Mild (maximum severity)",[1]; OCA 10 mg QD,3 (15%) n (%)
same,"Pruritus, Moderate (maximum severity)",[1]; OCA 10 mg QD,0 n (%)
same,"Pruritus, Severe (maximum severity)",[1]; OCA 10 mg QD,0 n (%)
same,Subjects with at least one TEAE,[1]; OCA 10 mg QD,12 (60%) n (%)
same,Total Number of TEAEs,[1]; OCA 25 mg QD,36
same,Any Serious TEAE,[1]; OCA 25 mg QD,0 n (%)
same,Constipation (TEAE incidence),[1]; OCA 25 mg QD,2 (10%) n (%)
same,Diabetes mellitus (TEAE),[1]; OCA 25 mg QD,0 n (%)
same,Fatigue (TEAE incidence),[1]; OCA 25 mg QD,3 (15%) n (%)
same,Headache (TEAE incidence),[1]; OCA 25 mg QD,0 n (%)
same,Hepatobiliary disorders (SOC) (TEAE),[1]; OCA 25 mg QD,0 n (%)
same,Hypercholesterolemia (TEAE),[1]; OCA 25 mg QD,1 (5%) n (%)
same,"LDL Increased, Mild (maximum severity)",[1]; OCA 25 mg QD,1 (5%) n (%)
same,"LDL Increased, Moderate (maximum severity)",[1]; OCA 25 mg QD,1 (5%) n (%)
same,"LDL Increased, Severe (maximum severity)",[1]; OCA 25 mg QD,0 n (%)
same,Low density lipoprotein increased (TEAE incidence),[1]; OCA 25 mg QD,2 (10%) n (%)
same,Nausea (TEAE incidence),[1]; OCA 25 mg QD,0 n (%)
same,Pneumonia (TEAE incidence),[1]; OCA 25 mg QD,2 (10%) n (%)
same,Pruritis (TEAE incidence),[1]; OCA 25 mg QD,5 (25%) n (%)
same,"Pruritus, Mild (maximum severity)",[1]; OCA 25 mg QD,2 (10%) n (%)
same,"Pruritus, Moderate (maximum severity)",[1]; OCA 25 mg QD,3 (15%) n (%)
same,"Pruritus, Severe (maximum severity)",[1]; OCA 25 mg QD,0 n (%)
same,Subjects with at least one TEAE,[1]; OCA 25 mg QD,15 (75%) n (%)
same,LDL cholesterol,"[1]; OCA treatment groups (10 mg QD, 25 mg QD)",increase in LDL cholesterol
same,liver exposure of OCA across fibrosis scores,"[2]; 10 mg QD, F1 or F2/F3",generally similar across subjects with different fibrosis scores
same,liver exposure of OCA across fibrosis scores,"[2]; 25 mg QD, F1, F2/F3 or F4",generally similar across subjects with different fibrosis scores
same,liver exposure of OCA across fibrosis scores after normalization by dose,"[2]; F1, F2/F3 or F4",generally similar across subjects with different fibrosis scores
same,"ALP levels, change from baseline",[3],dose dependent increase
same,"biochemistry markers of hepatic cytotoxicity and dysfunction (ALT, AST, GGT, total bilirubin, direct bilirubin)",[3]; no dose-dependent response,suppressed
same,"FGF-19 levels, percent change from baseline",[4],increased with OCA dose
same,"C4 levels, percent change from baseline",[4]; no dose response,suppressed
same,"plasma bile acids, percent change from baseline",[4]; no dose response,suppressed
same,reduction in DSI,"[5]; 10 mg QD or 25 mg QD, Day 85, greater response at 25 mg QD",dose-dependent and clinically meaningful reduction; also recorded: dose-dependent response
same,subjects treated with OCA among the 18 subjects with clinically relevant ΔDSI of at least −2,"[5]; F1, F2/F3 or F4, 10 mg QD or 25 mg QD, Day 85",17 subjects
same,"Responders (≥2 point decrease in DSI), %","[5]; F1, OCA 10 mg QD, Day 85, n = 3",(67) %
same,"Responders (≥2 point decrease in DSI), %","[5]; F1, OCA 25 mg QD, Day 85, n = 5",(20) %
same,change in DSI score (Day 85−Baseline) vs placebo,"[5]; F2/F3 NASH subjects, greatest effect at 25 mg QD",greater improvement in DSI score
same,"Responders (≥2 point decrease in DSI), %","[5]; F4, OCA 10 mg QD, Day 85, n = 2",(50) %
same,"Responders (≥2 point decrease in DSI), %","[5]; F4, OCA 25 mg QD, Day 85, n = 1",(100) %
same,"plasma exposure of OCA, NASH subjects vs healthy subjects",[6]; day 1 and day 85,modestly higher in NASH subjects
same,plasma exposure in F4 subjects compared to F1 or F2/F3,[6]; limited number of F4 subjects,lower
